Data reported in PMC9564936 (Proceedings of the National Academy of Sciences of the …, 2022).

Columns and labels:
EF-P (A1S_2419) [1] = target: T1, EF-P (A1S_2419) (Acinetobacter baumannii, UniProt A3M7E3); assay: isothermal titration calorimetry; format: binding
T1 sequence (A3M7E3 1-189): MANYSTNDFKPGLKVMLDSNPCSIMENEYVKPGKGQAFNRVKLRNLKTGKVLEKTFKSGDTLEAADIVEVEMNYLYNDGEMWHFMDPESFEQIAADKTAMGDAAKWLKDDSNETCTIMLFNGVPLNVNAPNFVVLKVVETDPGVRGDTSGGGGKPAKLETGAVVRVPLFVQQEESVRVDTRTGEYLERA

EF-P (A1S_2419) [2] = target: T1, EF-P (A1S_2419); assay: differential scanning fluorimetry; format: binding; conditions: 500 µM c-di-GMP

- Kd (EF-P (A1S_2419) [1]): 5.9 µM
- Kd (EF-P of A. albensis): 10.7 µM
SMILES: Nc1nc2c(ncn2[C@@H]2O[C@@H]3COP(=O)(O)O[C@H]4[C@@H](O)[C@H](n5cnc6c(=O)[nH]c(N)nc65)O[C@@H]4COP(=O)(O)O[C@H]3[C@H]2O)c(=O)[nH]1 [c-di-GMP, bis-(3′-5′)-cyclic guanosine monophosphate]
- thermal shift (EF-P (A1S_2419) [2]): The DSF assay showed a marked shift in the melting curve of EF-P
